One assay concerns HCV 1b genotype replicon. The assay is described as follows: HCV replicon assay, qRT-PCR (HCV RNA detection), genotype 1b replicon EC50. In kind it is cell-based. As to conditions: Hepatitis C virus, read-out: 1b EC50. The source says: HCV replicon cell lines (kindly provided by R. Bartenschlager) isolated from colonies as described by Lohman et al. (Lohman et al. (1999) Science 285: 110-113, expressly incorporated by reference in its entirety) and used for all experiments. The HCV replicon has the nucleic acid sequence set forth in EMBL Accession No.: AJ242651, the coding sequence of which is from nucleotides 1801 to 8406.
The coding sequence of the published HCV replicon was synthesized and subsequently assembled in a modified plasmid pBR322 (Promega, Madison, Wis.) using standard molecular biology techniques. […]
EC50 values of single agent compounds were determined by HCV RNA detection using quantitative RT-PCR, according to the manufacturer's instructions, with a TAQMAN® One-Step RT-PCR Master Mix Reagents Kit (Cat #AB 4309169, Applied Biosystems) on an ABI Model 7500 thermocycler. EC50 values of combinations are similarly determined by HCV RNA detection using quantitative RT-PCR. The TAQMAN primers to use for detecting and quantifying HCV RNA obtained from Integrated DNA Technologies. HCV RNA is normalized to GAPDH RNA levels in drug-treated cells, which is detected and quantified using the Human GAPDH Endogenous Control Mix (Applied Biosystems, AB 4310884E). […] Chemical agent cytotoxicity is evaluated using an MTS assay according to the manufacturer's directions (Promega). […]
(In general: A replicon is a self-replicating genome or part of one, used to study replication in cells.)

In a further assay the test system is HCV 1a genotype replicon. The assay is described as follows: HCV replicon assay, qRT-PCR (HCV RNA detection), genotype 1a replicon EC50. As to conditions: Hepatitis C virus, read-out: 1a EC50. Type of assay: cell-based.

Among the data in patent publication US8778938B2, “Hepatitis C virus inhibitors” (priority 2010, dated 2014) are EC50 values, retold here.

In the case of `COC(=O)N[C@H](C(=O)N1CCC[C@H]1c1nc(-c2ccc(-c3ccc(-c4c[nH]c([C@@H]5C[C@@]6(CCCO6)CN5C(=O)[C@@H](NC(=O)OC)C(C)C)n4)cc3)cc2)c[nH]1)C(C)C` [Compound 83], the EC50 – broadly, the concentration that produces a half-maximal response – with HCV 1b genotype replicon came to 0.019 nM.
As to `COC(=O)N[C@H](C(=O)N1CCC[C@H]1c1ncc(-c2ccc(-c3ccc(-c4cnc([C@@H]5C[C@H](C6CC6)CN5C(=O)[C@@H](NC(=O)OC)C(C)C)[nH]4)cc3)cc2)[nH]1)C(C)C` [Compound A83], in the assay with HCV 1a genotype replicon, the EC50 turned out to be 0.07 nM.
As to `COC(=O)N[C@H](C(=O)N1C[C@@H](C2CC2)C[C@H]1c1ncc(-c2ccc(-c3ccc(-c4cnc([C@@H]5C[C@H](C6CC6)CN5C(=O)[C@@H](NC(=O)OC)C(C)C)[nH]4)cc3)cc2)[nH]1)C(C)C` [Compound A229], the EC50 with HCV 1b genotype replicon was determined as 0.087 nM.
